From US8658646B2, “Pyrrolopyrazine kinase inhibitors” (Hoffmann-LaRoche Inc., priority 2011, dated 2014)

Biological target: T1, recombinant human SYK360-635 (Homo sapiens, UniProt P43405)
T1 construct: made in house
Experiment: Determination of IC50 of Spleen Tyrosine Kinase (SYK) inhibition, 33P ATP filtration assay
Format: biochemical
Settings: SYK aa 360-635 0.5 nM; ATP 20 μM, peptide 5 μM, 0.1% BSA; read-out: SYK_ENZYME_FILTRATION/v1, BSA

SMILES	IC50 [nM]
Cn1nc(-c2cnc3[nH]cc(C(=O)NC(C)(C)C)c3n2)c2ccccc21 [Example I-410, 2-(1-Methyl-1H-indazol-3-yl)-5H-pyrrolo[2,3-b]pyrazine-7-carboxylic acid tert-butylamide]	4.7
Cn1nc(-c2cnc3[nH]cc(C(=O)NC(C)(C)C)c3n2)c2cc(C#N)ccc21 [Example I-260, 2-(5-Cyano-1-methyl-1H-indazol-3-yl)-5H-pyrrolo[2,3-b]pyrazine-7-carboxylic acid tert-butylamide]	6.85
Cn1nc(-c2cnc3[nH]cc(C(=O)NC(C)(C)C(=O)OC(C)(C)C)c3n2)c2ccc(F)cc21 [Example I-381, 2-{[2-(6-Fluoro-1-methyl-1H-indazol-3-yl)-5H-pyrrolo[2,3-b]pyrazine-7-carbonyl]-amino}-2-methyl-propionic acid tert-butyl ester]	716
CC(C)(C)NC(=O)c1c[nH]c2ncc(-n3nc(Cl)c4ccccc43)nc12 [Example I-335, 2-(3-Chloro-indazol-1-yl)-5H-pyrrolo[2,3-b]pyrazine-7-carboxylic acid tert-butylamide]	61.6
Cn1nc(-c2cnc3[nH]cc(C(=O)Nc4cccc(C#N)c4)c3n2)c2ccc(Cl)cc21 [Example I-404, 2-(6-Chloro-1-methyl-1H-indazol-3-yl)-5H-pyrrolo[2,3-b]pyrazine-7-carboxylic acid (3-cyano-phenyl)-amide]	> 10000
CC(C)(C)NC(=O)c1c[nH]c2ncc(-c3nn(Cc4cccnc4)c4ccc(OC(F)F)cc34)nc12 [Example I-264, 2-(5-Difluoromethoxy-1-pyridin-3-ylmethyl-1H-indazol-3-yl)-5H-pyrrolo[2,3-b]pyrazine-7-carboxylic acid tert-butylamide]	4.67
Cn1nc(-c2cnc3[nH]cc(C(=O)NC(C)(C)C)c3n2)c2cc(S(C)(=O)=O)ccc21 [Example I-461, N-tert-Butyl-2-(1-methyl-5-(methylsulfonyl)-1H-indazol-3-yl)-5H-pyrrolo[3,2-b]pyrazine-7-carboxamide]	144
CN(C)C(=O)CCn1nc(-c2cnc3[nH]cc(C(=O)NC(C)(C)C)c3n2)c2cc(OC(F)F)ccc21 [Example I-339, 2-[5-Difluoromethoxy-1-(2-dimethylcarbamoyl-ethyl)-1H-indazol-3-yl]-5H-pyrrolo[2,3-b]pyrazine-7-carboxylic acid tert-butylamide]	17.9
Cn1nc(-c2cnc3[nH]cc(C(=O)NC(C)(C)C(F)(F)F)c3n2)c2ccc(Cl)cc21 [Example I-390, 2-(6-Chloro-1-methyl-1H-indazol-3-yl)-5H-pyrrolo[2,3-b]pyrazine-7-carboxylic acid (2,2,2-trifluoro-1,1-dimethyl-ethyl)-amide]	42.4
Cn1nc(-c2cnc3[nH]cc(C(=O)NC(C)(CO)CO)c3n2)c2ccc(F)cc21 [Example I-383, 2-(6-Fluoro-1-methyl-1H-indazol-3-yl)-5H-pyrrolo[2,3-b]pyrazine-7-carboxylic acid (2-hydroxy-1-hydroxymethyl-1-methyl-ethyl)-amide]	8.05
CONC(=O)c1c[nH]c2ncc(-c3nn(C)c4cc(F)ccc34)nc12 [Example I-361, 2-(6-Fluoro-1-methyl-1H-indazol-3-yl)-5H-pyrrolo[2,3-b]pyrazine-7-carboxylic acid methoxy-amide]	214
CC(C)(C)NC(=O)c1c[nH]c2ncc(-c3nn(CCCO)c4ccc(OC(F)F)cc34)nc12 [Example I-298, 2-[5-Difluoromethoxy-1-(3-hydroxy-propyl)-1H-indazol-3-yl]-5H-pyrrolo[2,3-b]pyrazine-7-carboxylic acid tert-butylamide]	3.78
CN1CCOC(Cn2nc(-c3cnc4[nH]cc(C(=O)NC(C)(C)C)c4n3)c3cc(OC(F)F)ccc32)C1 (stereo not shown) [Example I-342, 2-[5-Difluoromethoxy-1-(4-methyl-morpholin-2-ylmethyl)-1H-indazol-3-yl]-5H-pyrrolo[2,3-b]pyrazine-7-carboxylic acid tert-butylamide]	17.2
